From US11180462B2, “Microbiocidal oxadiazole derivatives” (SYNGENTA PARTICIPATIONS AG, priority 2015, dated 2021)

Legend:
[1] = system: Glomerella lagenarium (Colletotrichum lagenarium); assay: Fungicidal activity against Glomerella lagenarium (Colletotrichum lagenarium) liquid culture / cucumber / preventative (anthracnose); format: cell-based; conditions: Colletotrichum orbiculare; 20 ppm in the applied formulation; liquid culture (PDB), growth inhibition measured photometrically after 3 to 4 days; compared to untreated control; read-out: disease control
Procedure, shortened: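 Percent activity against the untreated check was derived from photometric growth measurements made 2 to 7 days after conidia in potato dextrose broth were combined with compound at 20 ppm. Cultures were kept dark at 24 °C and 96% humidity.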

[2] = system: Puccinia recondita f. Sp. Tritici; assay: Fungicidal activity against Puccinia recondita f. sp. tritici / wheat / leaf disc curative (brown rust); format: in vivo; conditions: foliar, 24 h, 200 ppm in the applied formulation, wheat leaf segments, curative (applied 1 day after inoculation), compared to untreated control leaf disks, read-out: disease control
Procedure, shortened: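 Inoculate cv. Kanzler segments on agar; hold dark, 19° C, 75% RH. Spray diluted formulated compound at day 1. Incubate 12 h light/12 h dark, same temperature and humidity; score % control vs untreated 6–8 days later.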

[3] = system: Phakopsora Pachyrhizi; assay: Fungicidal activity against Phakopsora pachyrhizi / soybean / leaf disc preventative (Asian soybean rust); format: in vivo; conditions: foliar, 200 ppm in the applied formulation, soybean leaf disks, compared to untreated control leaf disks, read-out: disease control
Procedure, shortened: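 Scored 12 to 14 days post-application as percent control relative to untreated check discs, rust spores were sprayed under the disc one day after compound treatment. Incubation: 20°C, 75% rh, first 24–36 h in darkness, then 12 h daily light; discs kept on water agar.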

[4] = system: Puccinia recondita f. Sp. Tritici; assay: Fungicidal activity against Puccinia recondita f. sp. tritici / wheat / leaf disc preventative (brown rust); format: in vivo; conditions: foliar, 200 ppm in the applied formulation, wheat leaf segments, preventative, compared to untreated control leaf disks, read-out: disease control
Procedure, shortened: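 Percent disease control relative to untreated check segments is scored once disease develops, 7 to 9 days after application. Wheat cv. Kanzler segments receive compound spray (200 ppm in formulation) one day before spore inoculation, then sit at 19° C. and 75% rh under 12 h light/12 h dark.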

CCCNC(=O)N(Cc1ccc(-c2noc(C(F)(F)F)n2)cc1)OC [Compound 3.21, 1-methoxy-3-propyl-1-[[4-[5 - (trifluoromethyl)-1,2,4-oxadiazol-3-yl]phenyl]methyl]urea]
≥ 80%: inhibition of growth at 20 ppm [1] | pest or weed control at 200 ppm [2] | pest or weed control at 200 ppm [3] | pest or weed control at 200 ppm [4]

CON(Cc1ccc(-c2noc(C(F)(F)F)n2)cc1)C(=O)c1ccccc1Cl [Compound 1.44, 2-chloro-N-methoxy-N-[[4-[5-(trifluoromethyl)-1,2,4-oxadiazol-3-yl]phenyl]methyl]-benzamide]
≥ 80%: inhibition of growth at 20 ppm [1] | pest or weed control at 200 ppm [2] | pest or weed control at 200 ppm [3] | pest or weed control at 200 ppm [4]

CCCON(Cc1ccc(-c2noc(C(F)(F)F)n2)cc1)C(=O)C1CC1F (stereo not shown) [Compound 1.315, 2-fluoro-N-propoxy-N-[[4-[5-(trifluoromethyl)-1,2,4-oxadiazol-3-yl]phenyl]methyl]-cyclopropane-carboxamide]
≥ 80%: inhibition of growth at 20 ppm [1] | pest or weed control at 200 ppm [2] | pest or weed control at 200 ppm [3] | pest or weed control at 200 ppm [4]

CCNC(=O)N(Cc1ccc(-c2noc(C(F)(F)F)n2)cc1)C1CC1 [Compound 3.34, 1-cyclopropyl-3-ethyl-1-[[4-[5-(trifluoromethyl)-1,2,4-oxadiazol-3-yl]phenyl]methyl]urea]
≥ 80%: inhibition of growth at 20 ppm [1] | pest or weed control at 200 ppm [2] | pest or weed control at 200 ppm [3] | pest or weed control at 200 ppm [4]

C#CCN(Cc1ccc(-c2noc(C(F)(F)F)n2)cc1)C(=O)C1(C)CC1 [Compound 1.183, 1-methyl-N-prop-2-ynyl-N-[[4-[5-(trifluoromethyl)-1,2,4-oxadiazol-3-yl]phenyl]methyl]-cyclopropane-carboxamide]
≥ 80%: inhibition of growth at 20 ppm [1] | pest or weed control at 200 ppm [2] | pest or weed control at 200 ppm [3] | pest or weed control at 200 ppm [4]

CON(Cc1ccc(-c2noc(C(F)(F)F)n2)cc1)C(=O)C(C)(C)O [Compound 1.784, 2-hydroxy-N-methoxy-2-methyl-N-[[4-[5-(trifluoromethyl)-1,2,4-oxadiazol-3-yl]phenyl]methyl]-propanamide]
≥ 80%: inhibition of growth at 20 ppm [1] | pest or weed control at 200 ppm [2] | pest or weed control at 200 ppm [3] | pest or weed control at 200 ppm [4]

CC1CC1C(=O)N(O)Cc1ccc(-c2noc(C(F)(F)F)n2)cc1 (stereo not shown) [Compound 1.763, N-hydroxy-2-methyl-N-[[4-[5-(trifluoromethyl)-1,2,4-oxadiazol-3-yl]phenyl]methyl]-cyclopropane-carboxamide]
≥ 80%: inhibition of growth at 20 ppm [1] | pest or weed control at 200 ppm [2] | pest or weed control at 200 ppm [3] | pest or weed control at 200 ppm [4]

O=C(C1CC1(F)F)N(Cc1ccc(-c2noc(C(F)(F)F)n2)cc1)C1COC1 (stereo not shown) [Compound 1.739, 2,2-difluoro-N-(oxetan-3-yl)-N-[[4-[5-(trifluoromethyl)-1,2,4-oxadiazol-3-yl]phenyl]methyl]-cyclopropane-carboxamide]
≥ 80%: inhibition of growth at 20 ppm [1] | pest or weed control at 200 ppm [2] | pest or weed control at 200 ppm [3] | pest or weed control at 200 ppm [4]

CON(Cc1ccc(-c2noc(C(F)(F)F)n2)c(F)c1)C(=O)C1CC1 [Compound 1.579, N-[[3-fluoro-4-[5-(trifluoromethyl)-1,2,4-oxadiazol-3-yl]phenyl]methyl]-N-methoxy-cyclopropane-carboxamide]
≥ 80%: inhibition of growth at 20 ppm [1] | pest or weed control at 200 ppm [2] | pest or weed control at 200 ppm [3] | pest or weed control at 200 ppm [4]

CC1CC1C(=O)N(Cc1ccc(-c2noc(C(F)(F)F)n2)cc1)CC1CC1 (stereo not shown) [Compound 1.223, N-(cyclopropylmethyl)-2-methyl-N-[[4-[5-(trifluoromethyl)-1,2,4-oxadiazol-3-yl]phenyl]methyl]-cyclopropane-carboxamide]
≥ 80%: inhibition of growth at 20 ppm [1] | pest or weed control at 200 ppm [2] | pest or weed control at 200 ppm [3] | pest or weed control at 200 ppm [4]

CCC(C)N(Cc1ccc(-c2noc(C(F)(F)F)n2)cc1)C(=O)C1OCCO1 (stereo not shown) [Compound 1.403, N-sec-butyl-N-[[4-[5-(trifluoromethyl)-1,2,4-oxadiazol-3-yl]phenyl]methyl]-1,3-dioxolane-2-carboxamide]
≥ 80%: inhibition of growth at 20 ppm [1] | pest or weed control at 200 ppm [2] | pest or weed control at 200 ppm [3] | pest or weed control at 200 ppm [4]

CCC(C)N(Cc1ccc(-c2noc(C(F)(F)F)n2)cc1)C(=O)C1CCCCO1 (stereo not shown) [Compound 1.368, N-sec-butyl-N-[[4-[5-(trifluoromethyl)-1,2,4-oxadiazol-3-yl]phenyl]methyl]-tetrahydropyran-2-carboxamide]
≥ 80%: inhibition of growth at 20 ppm [1] | pest or weed control at 200 ppm [2] | pest or weed control at 200 ppm [3] | pest or weed control at 200 ppm [4]

COCCCC(=O)N(CCOC)Cc1ccc(-c2noc(C(F)(F)F)n2)cc1 [Compound 1.365, 4-methoxy-N-(2-methoxyethyl)-N-[[4-[5-(trifluoromethyl)-1,2,4-oxadiazol-3-yl]phenyl]methyl]-butanamide]
≥ 80%: inhibition of growth at 20 ppm [1] | pest or weed control at 200 ppm [2] | pest or weed control at 200 ppm [3] | pest or weed control at 200 ppm [4]

CCCN(Cc1ccc(-c2noc(C(F)(F)F)n2)cc1)C(=O)CCCOC [Compound 1.662, 4-methoxy-N-propyl-N-[[4-[5-(trifluoromethyl)-1,2,4-oxadiazol-3-yl]phenyl]methyl]-butanamide]
≥ 80%: inhibition of growth at 20 ppm [1] | pest or weed control at 200 ppm [2] | pest or weed control at 200 ppm [3] | pest or weed control at 200 ppm [4]

N#Cc1ccc(CC(=O)N(Cc2ccc(-c3noc(C(F)(F)F)n3)cc2)C2CC2)cc1 [Compound 1.130, 2-(4-cyanophenyl)-N-cyclopropyl-N-[[4-[5-(trifluoromethyl)-1,2,4-oxadiazol-3-yl]phenyl]methyl]-acetamide]
≥ 80%: inhibition of growth at 20 ppm [1] | pest or weed control at 200 ppm [2] | pest or weed control at 200 ppm [3] | pest or weed control at 200 ppm [4]

COCCCC(=O)N(Cc1ccc(-c2noc(C(F)(F)F)n2)cc1)OC [Compound 1.59, N,4-dimethoxy-N-[[4-(5-(trifluoromethyl)-1,2,4-oxadiazol-3-yl]phenyl]methyl]-butanamide]
≥ 80%: inhibition of growth at 20 ppm [1] | pest or weed control at 200 ppm [2] | pest or weed control at 200 ppm [3] | pest or weed control at 200 ppm [4]

CON(Cc1ccc(-c2noc(C(F)(F)F)n2)cc1)C(=O)C(C)CC(C)=O (stereo not shown) [Compound 1.22, N-methoxy-2-methyl-4-oxo-N-[[4-[5-(trifluoromethyl)-1,2,4-oxadiazol-3-yl]phenyl]methyl]-pentanamide]
≥ 80%: inhibition of growth at 20 ppm [1] | pest or weed control at 200 ppm [2] | pest or weed control at 200 ppm [3] | pest or weed control at 200 ppm [4]

C=CCN(C(=O)CC)C(C#N)c1ccc(-c2noc(C(F)(F)F)n2)cc1 (stereo not shown) [Compound 1.592, N-allyl-N-[cyano-[4-[5-(trifluoromethyl)-1,2,4-oxadiazol-3-yl]phenyl]methyl]-propanamide]
≥ 80%: inhibition of growth at 20 ppm [1] | pest or weed control at 200 ppm [2] | pest or weed control at 200 ppm [3] | pest or weed control at 200 ppm [4]

CON(Cc1ccc(-c2noc(C(F)(F)F)n2)cc1)C(=O)N(C)C1COC1 [Compound 3.59, 1-methoxy-3-methyl-3-(oxetan-3-yl)-1-[[4-[5-(trifluoromethyl)-1,2,4-oxadiazol-3-yl]phenyl]methyl]urea]
≥ 80%: inhibition of growth at 20 ppm [1] | pest or weed control at 200 ppm [2] | pest or weed control at 200 ppm [3] | pest or weed control at 200 ppm [4]

COCCN(Cc1ccc(-c2noc(C(F)(F)F)n2)cc1)C(=O)C1(C)COC1 [Compound 1.351, N-(2-methoxyethyl)-3-methyl-N-[[4-[5-(trifluoromethyl)-1,2,4-oxadiazol-3-yl]phenyl]methyl]-oxetane-3-carboxamide]
≥ 80%: inhibition of growth at 20 ppm [1] | pest or weed control at 200 ppm [2] | pest or weed control at 200 ppm [3] | pest or weed control at 200 ppm [4]

O=C(ON(Cc1ccc(-c2noc(C(F)(F)F)n2)cc1)C(=O)C1CCOC1)C1CCOC1 (stereo not shown) [Compound 1.757, [tetrahydrofuran-3-carbonyl-[[4-[5-(trifluoromethyl)-1,2,4-oxadiazol-3-yl]phenyl]methyl]-amino] tetrahydrofuran-3-carboxylate]
≥ 80%: inhibition of growth at 20 ppm [1] | pest or weed control at 200 ppm [2] | pest or weed control at 200 ppm [3] | pest or weed control at 200 ppm [4]

CCC(=O)N(CCOC)Cc1ccc(-c2noc(C(F)(F)F)n2)cc1 [Compound 1.345, N-(2-methoxyethyl)-N-[[4-[5-(trifluoromethyl)-1,2,4-oxadiazol-3-yl]phenyl]methyl]-propanamide]
≥ 80%: inhibition of growth at 20 ppm [1] | pest or weed control at 200 ppm [2] | pest or weed control at 200 ppm [3] | pest or weed control at 200 ppm [4]
